Measured values taken from paper PMC9721424, “Novel N-methylsulfonyl-indole derivatives: biological activity and COX-2/5-LOX inhibitory effect with improved gastro protective profile and reduced cardio vascular risks” (Journal of Enzyme Inhibition and Medicinal Chemistry, 2022).
Several values for one entry are separate records, joined by “and”; a condition that tells them apart may be missing. Identical values can stand only once. Like-named read-outs stand apart in the source and are kept apart here.

Experiments:
5-LOX enzyme = target: T1, 5-LOX enzyme (Homo sapiens, UniProt P09917); experiment: 5-LOX inhibition, Human Lipoxygenase Inhibitor Screening Assay (EIA) kit; format: biochemical
T1 construct: purchased Cayman Chemical K980-100
T1 sequence (P09917 1-674): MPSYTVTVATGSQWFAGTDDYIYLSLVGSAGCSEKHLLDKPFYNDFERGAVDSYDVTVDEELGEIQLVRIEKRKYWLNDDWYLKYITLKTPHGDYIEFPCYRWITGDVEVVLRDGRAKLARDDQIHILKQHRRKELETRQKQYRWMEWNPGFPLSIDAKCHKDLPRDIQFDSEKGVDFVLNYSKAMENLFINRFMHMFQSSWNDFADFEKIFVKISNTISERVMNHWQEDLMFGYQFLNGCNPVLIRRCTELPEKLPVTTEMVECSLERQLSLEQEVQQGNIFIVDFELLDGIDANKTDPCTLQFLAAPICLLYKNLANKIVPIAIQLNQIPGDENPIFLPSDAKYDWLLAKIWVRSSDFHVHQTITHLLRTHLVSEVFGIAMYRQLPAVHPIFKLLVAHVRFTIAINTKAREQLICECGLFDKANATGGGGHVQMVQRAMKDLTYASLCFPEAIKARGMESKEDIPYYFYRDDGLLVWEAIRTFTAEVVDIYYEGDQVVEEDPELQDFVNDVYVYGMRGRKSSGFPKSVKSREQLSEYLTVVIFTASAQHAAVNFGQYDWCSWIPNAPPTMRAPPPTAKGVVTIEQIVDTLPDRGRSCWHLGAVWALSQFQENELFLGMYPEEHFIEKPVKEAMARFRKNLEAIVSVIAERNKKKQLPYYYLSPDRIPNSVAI
Experimental: The ability of the test compounds to inhibit the 5-LOX enzyme (IC50 value, μM) was detected using the Cayman Human Lipoxygenase Inhibitor Screening Assay (EIA) kit (catalog no. K980-100, Cayman Chemical). The IC50 values of test compounds were measured in µM according to the manufacturer’s instructions and reported method.

ovine COX-1 = target: T2, ovine COX-1 (Ovis aries, UniProt P05979); experiment: COX-1 inhibition, enzyme immune assay (EIA) kit; conditions: for IC50: read-out: IC50 COX-1
T2 sequence (P05979 25-600): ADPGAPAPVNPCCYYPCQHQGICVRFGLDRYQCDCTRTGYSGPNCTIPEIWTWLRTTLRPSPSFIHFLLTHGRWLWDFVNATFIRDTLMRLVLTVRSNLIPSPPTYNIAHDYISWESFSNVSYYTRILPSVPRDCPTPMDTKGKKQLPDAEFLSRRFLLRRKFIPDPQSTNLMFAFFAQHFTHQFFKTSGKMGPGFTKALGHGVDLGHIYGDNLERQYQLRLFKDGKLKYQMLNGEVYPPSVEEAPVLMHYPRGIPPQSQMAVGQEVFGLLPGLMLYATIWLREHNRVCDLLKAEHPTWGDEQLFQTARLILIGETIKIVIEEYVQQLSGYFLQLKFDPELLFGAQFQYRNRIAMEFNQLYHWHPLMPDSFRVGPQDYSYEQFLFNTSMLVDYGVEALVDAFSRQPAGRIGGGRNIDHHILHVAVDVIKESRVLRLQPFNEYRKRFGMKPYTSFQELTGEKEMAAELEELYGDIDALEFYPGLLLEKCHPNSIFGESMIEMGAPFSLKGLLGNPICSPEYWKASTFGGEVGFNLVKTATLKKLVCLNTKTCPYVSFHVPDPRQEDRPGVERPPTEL
From the text: Colorimetric enzyme immunoassay (EIA) kits were done to screen for the isozyme-specific inhibition.

DPPH free radical assay = format: biochemical; conditions: 540 nm, relative to Trolox; for DPPH test results (µM trolox equivalent/ 1mg sample ± SD): 30 min
Experimental: Preparation of samples was occurred at the following concentrations: Samples 3a, 4a, 5b, 5d and 5e at final concentrations of 0.5 mg/ml in methanol: DMSO 9:1 v/v. Samples 4b and 4d at final concentrations 0.025 mg/ml in methanol: DMSO 9:1 v/v, sample 5a at final concentrations 0.25 mg/ml in methanol: DMSO 9:1 v/v, Sample 4c, 5c and 4e at final concentrations 0.05 mg/ml in methanol: DMSO 9:1 v/v, sample 3b at final concentration 0.75 mg/ml methanol: DMSO 9:1 v/v. A stock solution of 100 µM concentration of Trolox, a standard used in this experiment, was prepared in methanol from which seven concentrations were prepared, including 50, 40, 30, 20, 15, 10 and 5 µM.
The DPPH (2,2-diphenyl-1-picryl-hydrazyl-hydrate) free radical assay was carried out according to the method of Boly et al. 2016[39]. Briefly, freshly prepared DPPH reagent (100 µl, 0.1% in methanol) was added to 100 µl of the sample on 96 well plates (n = 6). The reaction was incubated at room temp for 30 min in the dark. After completion of the incubation time, the reduction in DPPH colour intensity was measured at 540 nm. Data obtained was represented as means ± SD, according to the following equation, percentage inhibition = [(Average absorbance of blank – average absorbance of the test)/(Average absorbance of blank)] *100. The results were recorded using a microplate reader, FluoStar Omega.
Microsoft Excel® was used to analyse the obtained results. The IC50 values were calculated using Graph pad Prism 6® by converting the concentrations to their logarithmic value and selecting the non-linear inhibitor regression equation (log (inhibitor) vs. normalised response – variable slope equation). The methods used and the final test report (R-SO7320) were obtained from Nawah Scientific.

[1] = system: TNF-α in RAW264.7 macrophage cells; experiment: In vitro measurement of TNF-α in RAW264.7 macrophage cells (RT-qPCR); format: cell-based
From the text: Both Lipopolysaccharides (LPS) and hispidin were purchased from Sigma (Sigma-Aldrich, St. Louis, MO, USA)[40]. The foetal bovine serum (FBS) and Dulbecco’s modified Eagle’s medium (DMEM) were purchased from Hyclone (General Electric Healthcare Life Sciences, Mississauga, Canada), penicillin streptomycin (P/S) was purchased from Solarbio (Solarbio life sciences, Beijing, P. R. China). Results of all in vitro anti-inflammatory screening were obtained from the confirmatory diagnostic unit, VACSERA, Egypt.
DMEM was used to cultivate the macrophage cells RAW264.7 (Shanghai BOGO Industrial Co., Ltd., Shanghai, China), and supplemented with 10% FBS and 1% P/S (100 U/ml and […], respectively). […] They were treated with various concentrations of hispidin, then with 1 μg/ml LPS for the indicated time.
PBS (1 ml/well) was used to wash the cells in 24-well plates. […] For the experiments, CL Buffer included MgCl2 (M1028; Sigma) or RNasin Plus RNase Inhibitor (N2615; Promega). Before use, both Bio-Rad SPR and CL buffer were equilibrated to room temperature. […] Carefully, the resulting lysates were collected and either analysed immediately or stored frozen ([…]).
RT-qPCR analysis was performed in one-step SYBR Green RT-qPCR. […] A CFX96 real-time PCR instrument (Bio-Rad) was used under the following protocol: 50uC for 10 min, 95uC for 5 min, 95uC for 10 s/61uC for 15 s/72uC for 30 s.
Total RNA purified from cells was used as an RT-qPCR quantification standard.

COX-2 = target: T3, COX-2 (Ovis aries, UniProt P79208); experiment: COX-2 inhibition, enzyme immune assay (EIA) kit; format: biochemical, ovine; conditions: for S.I (IC50 COX-1/IC50 COX-2): COX-2 selectivity index; for SI: lab report, COX1/COX2
T3 sequence (P79208 17-603): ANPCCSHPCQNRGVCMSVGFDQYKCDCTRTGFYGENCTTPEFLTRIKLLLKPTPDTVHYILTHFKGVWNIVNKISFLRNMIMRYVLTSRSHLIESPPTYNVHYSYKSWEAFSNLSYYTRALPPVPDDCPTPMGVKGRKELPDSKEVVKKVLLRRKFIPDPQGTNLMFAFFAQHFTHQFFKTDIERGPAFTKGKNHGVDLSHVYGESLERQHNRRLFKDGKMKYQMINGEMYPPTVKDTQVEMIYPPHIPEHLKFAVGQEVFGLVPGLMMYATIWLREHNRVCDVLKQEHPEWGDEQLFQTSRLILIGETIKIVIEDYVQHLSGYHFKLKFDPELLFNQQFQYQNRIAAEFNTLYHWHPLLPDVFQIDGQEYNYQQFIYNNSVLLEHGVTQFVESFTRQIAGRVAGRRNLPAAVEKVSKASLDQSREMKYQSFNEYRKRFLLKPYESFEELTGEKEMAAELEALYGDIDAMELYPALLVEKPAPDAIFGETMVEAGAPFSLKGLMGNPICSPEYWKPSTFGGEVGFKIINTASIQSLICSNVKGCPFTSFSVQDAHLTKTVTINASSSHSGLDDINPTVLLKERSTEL

SMILES | IC50 (5-LOX enzyme) | 5-LOX %inh (5-LOX enzyme; conc 0.1 (μM)) | 5-LOX %inh (5-LOX enzyme; conc 1 (μM)) | 5-LOX %inh (5-LOX enzyme; conc 10 (μM)) | 5-LOX %inh (5-LOX enzyme; conc 100 (μM)) | COX1 %inh (ovine COX-1; conc 0.1 (μM)) | COX1 %inh (ovine COX-1; conc 1 (μM)) | COX1 %inh (ovine COX-1; conc 10 (μM)) | COX1 %inh (ovine COX-1; conc 100 (μM)) | IC50 (ovine COX-1) | DPPH test results (µM trolox equivalent/ 1mg sample ± SD) (DPPH free radical assay) | TNF-α fold change [1] | S.I (IC50 COX-1/IC50 COX-2) (COX-2) | SI (COX-2) | melting point | DPPH anti-oxidant activity (DPPH free radical assay; values in text) | IC50 (5-LOX enzyme; lab report)
CS(=O)(=O)n1cc(/C=N/N=C2/NCC(=O)S2)c2ccccc21 [Compound 5a] | 9.23 ± 0.49 µM | 7.21% | 17.4% | 50.3% | 79% | 13.6% | 32.4% | 59% | 85.6% | 3.95 ± 0.11 µM | 12.71 ± 1.16 µM trolox equivalent/ 1mg sample | 0.66 | 0.59 | 0.592 |  |  | 
CS(=O)(=O)n1cc(/C=N/N=C2\SC(=O)CN2c2ccccc2)c2ccccc21 [Compound 5c] | 79.4 ± 4.2 µM | 2.32% | 5.84% | 13% | 66.7% | 4.55% | 10.5% | 27.9% | 72.1% | 29.2 ± 0.83 µM | 707.52 ± 49.91 µM trolox equivalent/ 1mg sample |  | 3.63 | 3.628 | 260 to 262 °C | 707.52 µM Trolox equivalent/mg and 707.5 µM Trolox equivalent/mg | 
COc1ccc(N2CC(=O)S/C2=N\N=C\c2cn(S(C)(=O)=O)c3ccccc23)cc1 [Compound 5e] | 6.65 ± 0.35 µM | 11.6% | 24.1% | 53% | 80.8% | 3.76% | 13.1% | 20% | 68.5% | 47.5 ± 1.35 µM | 13.22 ± 1.89 µM trolox equivalent/ 1mg sample |  | 9.72 and 9.73 | 9.726 | 273 to 275 °C |  | 6.65 ± 0.35 µM
CC(c1cc2ccccc2s1)N(O)C(N)=O (stereo not shown) [Zileuton, reference compound] |  |  |  | 77.1% | 92.8% |  |  |  |  |  |  |  |  |  |  |  | 
